# Earlier results, collected in patent US20230149379A1, “COMBINATION THERAPY FOR ACUTE MYELOID LEUKEMIA” (Celgene Corporation, priority 2020, published 2023).
# How the values were obtained:
# AML at relapse = settings: administered alone
# R/R AML = settings: stepwise dosing
tumor lysis syndrome (R/R AML),Molecule,response in treating AML at relapse (AML at relapse)
,"CT-011: anti-PD-1 antibody, a humanized antibody",failed to show response
did not occur,"CC1(C)CCC(CN2CCN(c3ccc(C(=O)NS(=O)(=O)c4ccc(NCC5CCOCC5)c([N+](=O)[O-])c4)c(Oc4cnc5[nH]ccc5c4)c3)CC2)=C(c2ccc(Cl)cc2)C1 [Venetoclax, 4-[4-[[2-(4-chlorophenyl)-4,4-dimethylcyclohexen-1-yl]methyl]piperazin-1-yl]-N-[3-nitro-4-(oxanylmethylamino)phenyl]sulfonyl-2-(1H-pyrrolo[2,3-b]pyridin-5-yloxy)benzamide]",
